# Where two headings read alike, the source gives them in different places.
# B1: Tar-LBD (ligand-binding domain of the aspartate chemoreceptor Tar of E. coli) (domain or fragment, E. coli K12, UniProt P07017 31-188, looked up)
# chain: SSLHHSQKSFVVSNQLREQQGELTSTWDLMLQTRINLSRSAVRMMMDSSNQQSNAKVELLDSARKTLAQAATHYKKFKSMAPLPEMVATSRNIDEKYKNYYTALTELIDYLDYGNTGAYFAQPTQGMQNAMGEAFAQYALSSEKLYRDIVTDNADDYR
# notes: Cloned into the NdeI and BamHI sites of pET28b(+) and purified on a HisTrap column; In solution it is a rapidly interchanging mixture of monomer and dimer; also called E. coli Tar-LBD; LBD of the Tar chemoreceptor; source: E. coli BL21(DE3), purified (HisTrap)
# Key:
# [1] = target: T1, PctA-LBD (Pseudomonas aeruginosa, UniProt G3XD24); assay: ITC titration of PctA-LBD with L-alanine at different pH; assay type: binding, P. aeruginosa PAO1
# T1 construct: pET28b(+) derivative containing a DNA fragment encoding the PctA-LBD; made in house
# [2] = tested on: P. aeruginosa PAO1; assay: Quantitative capillary chemotaxis assay at different pH; assay type: cell-based; details: 1 mM ligand
# Experimental: We evaluated the effect of pH on P. aeruginosa chemotaxis to L-Ala, a ligand of the PctA chemoreceptor, using the quantitative capillary chemotaxis assay. Prior to performing these assays, we evaluated cell viability and motility at different pH values. We grew cells in minimal medium to an OD660 of 0.4, washed twice with chemotaxis buffer at the different pH values, resuspended in the corresponding buffer, and incubated for 1 h. Cells were then plated out to assess cell viability. […] We then determined the effect of different pH on the chemotactic responses to L-Ala.
# Chemotaxis assays were performed as previously described ([79]) with some modifications. When cultures reached an OD660 of 0.4, the cells were gently washed twice with chemotaxis buffer at different pH and then resuspended in fresh buffer. The chemoeffector solutions were prepared in the corresponding chemotaxis buffer. Data are the means and standard deviations of at least 3 biological replicates conducted in triplicate.
# [3] = target: T2, TtgV (Pseudomonas putida, UniProt Q93PU6); assay: ITC titration of TtgV with benzonitrile at different pH; assay type: binding, P. putida DOT-T1E; details: 25°C
# T2 construct: made in house
# [4] = target: T3, MBP (Escherichia coli, UniProt P0AEX9); assay: ITC titration of maltose-binding protein (MBP) with D-maltose at different pH; set-up: species or system E. coli K12
# T3 construct: His tag (from pET28b(+)) (N); made in house; host or cells: Escherichia coli BL21(DE3)
# [5] = target: McpV-LBD (Sinorhizobium meliloti, UniProt Q7APD1); assay: ITC titration of McpV-LBD with propionate at different pH; assay type: binding, Sinorhizobium meliloti RU11/001
# [6] = target: T4, PcaY_PP-LBD (Pseudomonas putida, UniProt Q88JK6); assay: ITC titration of PcaY_PP-LBD with quinate at different pH; assay type: binding, P. putida KT2440
# T4 construct: made in house
# Experimental: (§1) To assess the pH dependence of ligand-binding, freshly purified proteins were dialyzed overnight into the buffers described in Table S1 and submitted to microcalorimetric titration.
# (§2) Freshly purified proteins were dialyzed into the buffers specified in Table S1 and introduced into the sample cell of an VP-microcalorimeter (MicroCal). Proteins at 15 to 100 μM were titrated with 0.25 to 10 mM ligand solutions that were made up in dialysis buffer. For pH-active ligands, the pH of the ligand solutions was adjusted to that of the dialysis buffer by the addition of concentrated HCl or NaOH. Titrations of MBP and McpV-LBD were conducted at 15°C to favor endothermic contributions to binding heats, whereas the remaining titrations were carried out at 25°C. Raw titration data were integrated, corrected for ligand-dilution heats and normalized with the ligand concentrations. Resulting data were fitted with the “One Binding site model” of the MicroCal version of ORIGIN. Provided are the dissociation constants derived from one experiment and the error of curve-fitting.
# [7] = target: McpU-LBD (Pseudomonas putida, UniProt Q88NI1); assay: biochemical
# Experimental: as §1, §2
# [8] = target: the molecule itself; assay: AUC; sedimentation velocity with 1 mM L-Asp, 35 uM protein, pH 3.5, 5.0, 7.0 and 10.0, 10°C, 42,000 rpm; monomer to dimer
# [9] = 15°C, defined as binding with a KD below 1 mM
# [10] = ITC, 25°C, defined as binding with a KD below 1 mM
# McpU-LBD, sequence (Q88NI1 50-284): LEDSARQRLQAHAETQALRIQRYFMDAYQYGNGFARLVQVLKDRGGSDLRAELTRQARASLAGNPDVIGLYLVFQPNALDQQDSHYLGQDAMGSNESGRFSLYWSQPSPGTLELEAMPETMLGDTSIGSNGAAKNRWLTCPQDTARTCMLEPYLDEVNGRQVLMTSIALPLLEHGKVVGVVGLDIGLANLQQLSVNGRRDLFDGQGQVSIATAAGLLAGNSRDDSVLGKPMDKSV
# T4 sequence (Q88JK6 44-196): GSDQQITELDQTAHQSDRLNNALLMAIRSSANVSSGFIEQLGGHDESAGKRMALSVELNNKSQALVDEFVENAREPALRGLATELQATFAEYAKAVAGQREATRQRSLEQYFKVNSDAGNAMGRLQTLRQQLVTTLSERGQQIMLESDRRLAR
# T2 sequence (Q93PU6 whole entry): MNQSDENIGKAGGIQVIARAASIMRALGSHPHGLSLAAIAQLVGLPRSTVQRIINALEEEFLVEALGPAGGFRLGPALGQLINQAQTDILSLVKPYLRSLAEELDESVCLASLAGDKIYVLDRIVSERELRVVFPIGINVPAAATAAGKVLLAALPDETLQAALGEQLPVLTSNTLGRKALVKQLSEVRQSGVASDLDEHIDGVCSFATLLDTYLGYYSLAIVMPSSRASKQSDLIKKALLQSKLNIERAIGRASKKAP
# T1 sequence (G3XD24 32-276): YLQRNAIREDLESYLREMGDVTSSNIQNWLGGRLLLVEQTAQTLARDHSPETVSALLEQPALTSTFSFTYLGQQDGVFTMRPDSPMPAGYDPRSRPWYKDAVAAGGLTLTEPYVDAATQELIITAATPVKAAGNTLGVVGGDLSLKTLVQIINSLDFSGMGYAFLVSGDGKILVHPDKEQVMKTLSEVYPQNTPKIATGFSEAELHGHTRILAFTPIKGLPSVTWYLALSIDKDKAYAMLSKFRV
# McpV-LBD, sequence (Q7APD1 entry or part of it): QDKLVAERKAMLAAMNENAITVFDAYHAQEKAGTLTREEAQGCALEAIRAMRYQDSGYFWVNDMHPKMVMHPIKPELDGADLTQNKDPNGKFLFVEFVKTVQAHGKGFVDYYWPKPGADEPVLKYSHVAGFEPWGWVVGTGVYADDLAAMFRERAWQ
molecule,measurement,setting,value
C[C@H](N)C(=O)O [L-alanine],pH optimum,[1]; 25°C,5.5
same,pH range of binding,"[1]; 25°C, defined as binding with a KD below 1 mM",3.0-11.5
same,Kd,"[1]; average over the pH range 3.0 to 11.0, read-out: average dissociation constant (KD)",1.26 ± 0.7 µM
same,Kd,"[1]; pH 3.0, read-out: dissociation constant (KD)",1.3 µM
same,width of pH range of high-affinity binding,[1]; pH 3.0 to 11.5,8.5 pH units
same,Kd,"[1]; pH 9.0, read-out: dissociation constant (KD)",0.91 µM
same,Kd,"[1]; pH 11.0, read-out: dissociation constant (KD)",3.9 µM
same,pH of optimal chemotactic responses,[2],7.0
N#Cc1ccccc1 [Benzonitrile],pH optimum,[3],6.0
same,pH range of binding,[3]; defined as binding with a KD below 1 mM,5.0-9.0
same,Kd,"[3]; pH 6.0, read-out: KD at pH optimum",67.6 µM
OC[C@H]1O[C@H](O[C@H]2[C@H](O)[C@@H](O)[C@H](O)O[C@@H]2CO)[C@H](O)[C@@H](O)[C@@H]1O [D-maltose],width of pH range of ligand recognition,[4],8.5 pH units
same,pH optimum,[4]; 15°C,9.0
same,pH range of binding,[4]; [9],2.5-11.0
CCC(=O)O [Propionate],width of pH range of high-affinity binding,[5],6.5 pH units
same,pH optimum,[5]; 15°C,7.0
same,pH range of binding,[5]; [9],5.0-11.5
same,Kd,"[5]; 15°C, pH 7.0, read-out: KD at pH optimum",33.1 µM
O=C(O)[C@]1(O)C[C@@H](O)[C@@H](O)[C@H](O)C1 [Quinate],Kd,[6],1.22 µM
same,pH optimum,"[6]; ITC, 25°C",5.0
same,pH range of binding,[6]; [10],3.5-11.5
same,width of pH profile of binding,"[6]; ITC, pH 3.5-11.5",8 pH units
NCCCCN [Putrescine],Kd,[7],0.7 µM
same,pH optimum,"[7]; ITC, 25°C",8.5
same,pH range of binding,[7]; [10],4.5-11.5
B1,stoichiometry N,[8],2

# Source: publication PMC9600550, “The pH Robustness of Bacterial Sensing” (mBio, 2022)
